From patent US8993574B2, “Pyrrole antifungal agents” (F2G Ltd, priority 2008, dated 2015) come the findings set out here.

Holding throughout (format): cell-based
Assay [1] concerns Aspergillus flavus. Nature of the assay: MIC, YAG medium. The settings on record: 24 h at 35° C, MIC banded into grades; for MIC: Aspergillus flavus, 24 h, read-out: MIC grade, A. flavus. Put shortly:
(§1)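 Growth inhibition was measured by absorbance at 485 nm following 24 h at 35° C. Spores harvested after 5 days on Sabouraud agar served as inoculum (1−2×10^4 cfu/mL, YAG medium). The lowest drug level producing >70% inhibition was taken as MIC.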

In assay [2] the test system is Aspergillus fumigatus AF210. Nature of the assay: MIC, YAG medium. The settings on record: 24 h at 35° C, MIC banded into grades; for MIC: Aspergillus fumigatus, read-out: MIC grade, A. fumigatus 210. A digest of the protocol:
as §1

Assay [3] relates to Aspergillus fumigatus AF293. Description: MIC, YAG medium. The settings on record: 24 h at 35° C, MIC banded into grades; for MIC: Aspergillus fumigatus, read-out: MIC grade, A. fumigatus. Put shortly: as §1
Assay [4] relates to Aspergillus niger. Description: MIC, YAG medium. The settings on record: 24 h at 35° C, MIC banded into grades; for MIC: Aspergillus niger, read-out: MIC grade, A. niger. A digest of the protocol: as §1
Assay [5] has as its system Aspergillus terreus AT49. Nature of the assay: MIC, YAG medium. The settings on record: 24 h at 35° C, MIC banded into grades; for MIC: Aspergillus terreus, read-out: MIC grade, A. terreus 49. A digest of the protocol:
as §1

For assay [6], the system named is Aspergillus terreus AT4. Nature of the assay: MIC, YAG medium. The settings on record: 24 h at 35° C, MIC banded into grades; for MIC: Aspergillus terreus, read-out: MIC grade, A. terreus. A digest of the protocol: as §1
Assay [7] has as its system Aspergillus flavus. Nature of the assay: MIC, RPMI medium. The settings on record: MIC banded into grades; for MIC: Aspergillus flavus, read-out: MIC grade, A. flavus. Put shortly: (§2)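 MIC taken as lowest drug level inhibiting growth by >80% relative to drug-free wells, read as OD at 485 nm after 24-48 h at 35° C. Organisms at 1−2×10^4 cfu/mL in RPMI (2% glucose, 0.135 M MOPS, pH 7.0) exposed to doubling dilutions spanning 50-0.05 mg/L.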

Assay [8] concerns Aspergillus fumigatus AF210. Description: MIC, RPMI medium. The settings on record: for MIC: Aspergillus fumigatus, AF210, MIC banded into grades, read-out: MIC grade, A. fumigatus 210; for MIC grade, A. fumigatus 210: MIC banded into grades. Put shortly: as §2
In assay [9] the test system is Aspergillus fumigatus AF293. Description: MIC, RPMI medium. The settings on record: for MIC: Aspergillus fumigatus, AF293, MIC banded into grades, read-out: MIC grade, A. fumigatus; for MIC grade, A. fumigatus: MIC banded into grades. Put shortly:
as §2

Assay [10] relates to Aspergillus niger. Nature of the assay: MIC, RPMI medium. The settings on record: MIC banded into grades; for MIC: Aspergillus niger, read-out: MIC grade, A. niger. A digest of the protocol: as §2
Assay [11] relates to Aspergillus terreus AT49. Description: MIC, RPMI medium. The settings on record: for MIC: Aspergillus terreus, AT49, MIC banded into grades, read-out: MIC grade, A. terreus 49; for MIC grade, A. terreus 49: MIC banded into grades. Put shortly: as §2
The subject of assay [12] is Aspergillus terreus AT4. Nature of the assay: MIC, RPMI medium. The settings on record: for MIC: Aspergillus terreus, AT4, MIC banded into grades, read-out: MIC grade, A. terreus; for MIC grade, A. terreus: MIC banded into grades. Put shortly:
as §2

Values after ≈ are worked out from the molar mass of the structure shown.

For `Cc1cc(C)nc(N2CCN(c3ccc(NC(=O)C(=O)c4c(-c5ccccc5)cc5n4CCN(C)C5)cc3)CC2)c1` [Example 5, N-{4-[4-(4,6-Dimethyl-pyridin-2-yl)-piperazin-1-yl]-phenyl}-2-(2-methyl-7-phenyl-1,2,3,4-tetrahydro-pyrrolo[1,2-a]pyrazin-6-yl)-2-oxo-acetamide], the MIC (in general, the lowest concentration that inhibits growth of the organism) is 1 to 10 µg/mL (≈ 1.82 to 18.2 µM) in assay [1]; under 1 µg/mL in [2]; under 1 µg/mL in assay [3]; 1 to 10 µg/mL (≈ 1.82 to 18.2 µM) in [4]; under 1 µg/mL in [5]; under 1 µg/mL in assay [6]. Also, the minimum inhibitory concentration (MIC) in assay [7] was 1 to 10 µg/mL (≈ 1.82 to 18.2 µM); in assay [8], 1 to 10 µg/mL (≈ 1.82 to 18.2 µM); in assay [9], 1 to 10 µg/mL (≈ 1.82 to 18.2 µM); in assay [10], 1 to 10 µg/mL (≈ 1.82 to 18.2 µM); in assay [11], under 1 µg/mL; in assay [12], under 1 µg/mL.
As to `COC(=O)Cn1c(C)cc(-c2ccccc2)c1C(=O)C(=O)Nc1ccc(N2CCN(c3cc(C)cc(C)n3)CC2)cc1Cl` [Example 98, (2-{2-Chloro-4-[4-(4,6-dimethyl-pyridin-2-yl)-piperazin-1-yl]-phenylaminooxalyl}-5-methyl-3-phenyl-pyrrol-1-yl)-acetic acid methyl ester], the “MIC grade, A. flavus” value was 1 (a grade of 1 represents an MIC of greater than 10 mg/L) in [1] and 2 (A grade of 2 represents an MIC of from 1 to 10 mg/L) in assay [7]. The “MIC grade, A. fumigatus 210” value in [2] and in [8] was 3 (A grade of 3 represents an MIC of less than 1 mg/L) each time. Besides, the “MIC grade, A. fumigatus” value in assay [3] and in [9] was 3 (A grade of 3 represents an MIC of less than 1 mg/L) each time. The “MIC grade, A. niger” value in assay [4] and in assay [10] was 3 (A grade of 3 represents an MIC of less than 1 mg/L) throughout. The “MIC grade, A. terreus 49” value in [5] and in assay [11] was 3 (A grade of 3 represents an MIC of less than 1 mg/L) each time. Also, the “MIC grade, A. terreus” value in assay [6] and in [12] was 3 (A grade of 3 represents an MIC of less than 1 mg/L) each time.
As to `Cc1cc(C)nc(N2CCN(c3ccc(NC(=O)C(=O)c4ccc(C)n4-c4ccccc4)cc3)CC2)c1` [Example 3, N-{4-[4-(4,6-Dimethyl-pyridin-2-yl)-piperazin-1-yl]-phenyl}-2-(5-methyl-1-phenyl-1H-pyrrol-2-yl)-2-oxo-acetamide], the minimum inhibitory concentration (MIC) in assay [1] is 1 to 10 µg/mL (≈ 2.03 to 20.3 µM); in assay [2] it was 1 to 10 µg/mL (≈ 2.03 to 20.3 µM); in [3], over 10 µg/mL; in assay [4], over 10 µg/mL; in assay [5] it was under 1 µg/mL; in assay [6], under 1 µg/mL. For the same molecule, the MIC is over 10 µg/mL in [7]; over 10 µg/mL in assay [8]; over 10 µg/mL in [9]; over 10 µg/mL in assay [10]; 1 to 10 µg/mL (≈ 2.03 to 20.3 µM) in assay [11]; 1 to 10 µg/mL (≈ 2.03 to 20.3 µM) in assay [12].
On to `Cc1cc(C)nc(N2CCN(c3ccc(NC(=O)C(=O)c4c(-c5ccccc5)cc(C)n4CCO)cc3)CC2)c1` [Example 64, N-{4-[4-(4,6-Dimethyl-pyridin-2-yl)-piperazin-1-yl]-phenyl}-2-[1-(2-hydroxy-ethyl)-5-methyl-3-phenyl-1H-pyrrol-2-yl]-2-oxo-acetamide], for which the MIC in assay [1], in assay [2], in [3], in assay [4], in assay [5] and in assay [6] was under 1 µg/mL in each case. For the same molecule, the MIC in assay [7] is 1 to 10 µg/mL (≈ 1.86 to 18.6 µM); in [8], under 1 µg/mL; in assay [9] it was under 1 µg/mL; in assay [10], under 1 µg/mL; in assay [11], under 1 µg/mL; in [12] it was 1 to 10 µg/mL (≈ 1.86 to 18.6 µM).
As for `COC(=O)Cn1cc(-c2ccccc2)cc1C(=O)C(=O)Nc1ccc(N2CCN(c3cc(C)cc(C)n3)CC2)cc1` [Example 122, (2-{4-[4-(4,6-Dimethyl-pyridin-2-yl)-piperazin-1-yl]-phenylaminooxalyl}-4-phenyl-pyrrol-1-yl)-acetic acid methyl ester], the “MIC grade, A. flavus” value in assay [1] and in assay [7] was 1 (a grade of 1 represents an MIC of greater than 10 mg/L) each time. The “MIC grade, A. fumigatus 210” value is reported as 2 (A grade of 2 represents an MIC of from 1 to 10 mg/L) in assay [2] and 1 (a grade of 1 represents an MIC of greater than 10 mg/L) in assay [8]. Also, the figures for the “MIC grade, A. fumigatus” value in assay [3] and in assay [9] were 3 (A grade of 3 represents an MIC of less than 1 mg/L) and 1 (a grade of 1 represents an MIC of greater than 10 mg/L), respectively. Moreover, the “MIC grade, A. niger” value in assay [4] and in [10] was 2 (A grade of 2 represents an MIC of from 1 to 10 mg/L) each time. The “MIC grade, A. terreus 49” value in assay [5] and in [11] was 1 (a grade of 1 represents an MIC of greater than 10 mg/L) each time. Also, the “MIC grade, A. terreus” value in [6] and in assay [12] was 1 (a grade of 1 represents an MIC of greater than 10 mg/L) each time.
On to `COC(=O)Cn1ccc(C2CCC2)c1C(=O)C(=O)Nc1ccc(N2CCN(c3cc(C)cc(C)n3)CC2)cc1` [Example 107, (3-Cyclobutyl-2-{4-[4-(4,6-dimethyl-pyridin-2-yl)-piperazin-1-yl]-phenylaminooxalyl}-pyrrol-1-yl)-acetic acid methyl ester], for which the “MIC grade, A. flavus” value in assay [1] and in [7] was 1 (a grade of 1 represents an MIC of greater than 10 mg/L) throughout. Besides, the “MIC grade, A. fumigatus 210” value is 3 (A grade of 3 represents an MIC of less than 1 mg/L) in [2] and 2 (A grade of 2 represents an MIC of from 1 to 10 mg/L) in [8]. The “MIC grade, A. fumigatus” value in assay [3] and in assay [9] was 3 (A grade of 3 represents an MIC of less than 1 mg/L) throughout. Besides, the “MIC grade, A. niger” value in [4] and in assay [10] was 1 (a grade of 1 represents an MIC of greater than 10 mg/L) throughout. Further, the “MIC grade, A. terreus 49” value in [5] and in assay [11] was 1 (a grade of 1 represents an MIC of greater than 10 mg/L) throughout. For the same molecule, the “MIC grade, A. terreus” value in assay [6] and in [12] was 1 (a grade of 1 represents an MIC of greater than 10 mg/L) in each case.
Regarding `Cc1cc(C)nc(N2CCN(c3ccc(NC(=O)C(=O)c4c(-c5ccccc5)cc(C)n4C)cc3COCCN(C)C)CC2)c1` [Example 17, N-{3-(2-Dimethylamino-ethoxymethyl)-4-[4-(4,6-dimethyl-pyridin-2-yl)-piperazin-1-yl]-phenyl}-2-(1,5-dimethyl-3-phenyl-1H-pyrrol-2-yl)-2-oxo-acetamide], the MIC in [1], in assay [2], in [3], in assay [4], in [5] and in assay [6] was 1 to 10 µg/mL (≈ 1.64 to 16.4 µM) each time. Besides, the minimal inhibitory concentration (MIC) in [7], in assay [8], in assay [9], in [10], in assay [11] and in [12] was over 10 µg/mL in each case.
On to `COCCn1c(C)cc(-c2ccccc2)c1C(=O)C(=O)Nc1ccc(N2CCN(c3cc(C)cc(C)n3)CC2)cc1F` [Example 123, N-{4-[4-(4,6-Dimethyl-pyridin-2-yl)-piperazin-1-yl]-2-fluoro-phenyl}-2-[1-(2-methoxy-ethyl)-5-methyl-3-phenyl-1H-pyrrol-2-yl)-2-oxo-acetamide], for which the minimal inhibitory concentration (MIC) in assay [1], in assay [2], in assay [3], in [4], in assay [5] and in [6] was under 1 µg/mL in each case. Also, the MIC in assay [7] is under 1 µg/mL; in assay [8] it was under 1 µg/mL; in assay [9] it was under 1 µg/mL; in assay [10], under 1 µg/mL; in [11], 1 to 10 µg/mL (≈ 1.76 to 17.6 µM); in [12] it was under 1 µg/mL.
